# Test results from ChEMBL document CHEMBL1671617, “Correlation of antimicrobial resistance with beta-lactamases, the OmpA-like porin, and efflux pumps in clinical isolates of Acinetobacter baumannii endemic to New York City” (2008).
# Test system: Acinetobacter baumannii
# Assay: Antimicrobial activity against ISAba1 linked with the blaOXA-51-type beta-lactamase harboring Acinetobacter baumannii alpha clonal group isolate 1 expressing ampC, ompA, adeB, adeM by Etest method
# Format: functional
row,Compound,MIC [µg/mL]
1,C[C@@H](O)[C@H]1C(=O)N2C(C(=O)O)=C(S[C@@H]3CN[C@H](C(=O)N(C)C)C3)[C@H](C)[C@H]12 [MEROPENEM],4

# Test system: Acinetobacter baumannii
# Assay: Antimicrobial activity against Acinetobacter baumannii alpha clonal group isolate 2 expressing ampC, ompA, adeB, adeM, aacC1, aadA1 by Etest method
# Format: functional
row,Compound,MIC [µg/mL]
1,C[C@@H](O)[C@H]1C(=O)N2C(C(=O)O)=C(S[C@@H]3CN[C@H](C(=O)N(C)C)C3)[C@H](C)[C@H]12 [MEROPENEM],1.5

# Test system: Acinetobacter baumannii
# Assay: Antimicrobial activity against Acinetobacter baumannii alpha clonal group isolate 3 expressing ampC, ompA, adeB, adeM, aacC1, aadA1 by Etest method
# Format: functional
row,Compound,MIC [µg/mL]
1,C[C@@H](O)[C@H]1C(=O)N2C(C(=O)O)=C(S[C@@H]3CN[C@H](C(=O)N(C)C)C3)[C@H](C)[C@H]12 [MEROPENEM],1.5

# Test system: Acinetobacter baumannii
# Assay: Antimicrobial activity against Acinetobacter baumannii alpha clonal group isolate 4 expressing ampC, ompA, adeB, adeM, aacC1, aadA1 by Etest method
# Format: functional
row,Compound,MIC [µg/mL]
1,C[C@@H](O)[C@H]1C(=O)N2C(C(=O)O)=C(S[C@@H]3CN[C@H](C(=O)N(C)C)C3)[C@H](C)[C@H]12 [MEROPENEM],1.5

# Test system: Acinetobacter baumannii
# Assay: Antimicrobial activity against Acinetobacter baumannii alpha clonal group isolate 5 expressing ampC, ompA, adeB, adeM, aacC1, aadA1 by Etest method
# Format: functional
row,Compound,MIC [µg/mL]
1,C[C@@H](O)[C@H]1C(=O)N2C(C(=O)O)=C(S[C@@H]3CN[C@H](C(=O)N(C)C)C3)[C@H](C)[C@H]12 [MEROPENEM],1.5

# Test system: Acinetobacter baumannii
# Assay: Antimicrobial activity against ISAba1 linked with the blaOXA-51-type beta-lactamase harboring Acinetobacter baumannii alpha clonal group isolate 6 expressing ampC, ompA, adeB, adeM, aacC1, aadA1 by Etest method
# Format: functional
row,Compound,MIC [µg/mL]
1,C[C@@H](O)[C@H]1C(=O)N2C(C(=O)O)=C(S[C@@H]3CN[C@H](C(=O)N(C)C)C3)[C@H](C)[C@H]12 [MEROPENEM],12

# Test system: Acinetobacter baumannii
# Assay: Antimicrobial activity against ISAba1 linked with the blaOXA-51-type beta-lactamase harboring Acinetobacter baumannii alpha clonal group isolate 7 expressing ampC, ompA, adeB, adeM, blaSHV-5 by Etest method
# Format: functional
row,Compound,MIC [µg/mL]
1,C[C@@H](O)[C@H]1C(=O)N2C(C(=O)O)=C(S[C@@H]3CN[C@H](C(=O)N(C)C)C3)[C@H](C)[C@H]12 [MEROPENEM],> 32

# Test system: Acinetobacter baumannii
# Assay: Antimicrobial activity against ISAba1 linked with the blaOXA-51-type beta-lactamase harboring Acinetobacter baumannii alpha clonal group isolate 8 expressing ampC, ompA, adeB, adeM, aacC1, aadA1 by Etest method
# Format: functional
row,Compound,MIC [µg/mL]
1,C[C@@H](O)[C@H]1C(=O)N2C(C(=O)O)=C(S[C@@H]3CN[C@H](C(=O)N(C)C)C3)[C@H](C)[C@H]12 [MEROPENEM],24

# Test system: Acinetobacter baumannii
# Assay: Antimicrobial activity against ISAba1 linked with the blaOXA-51-type beta-lactamase harboring Acinetobacter baumannii beta clonal group isolate 9 expressing ampC, ompA, adeB, adeM by Etest method
# Format: functional
row,Compound,MIC [µg/mL]
1,C[C@@H](O)[C@H]1C(=O)N2C(C(=O)O)=C(S[C@@H]3CN[C@H](C(=O)N(C)C)C3)[C@H](C)[C@H]12 [MEROPENEM],> 32

# Test system: Acinetobacter baumannii
# Assay: Antimicrobial activity against ISAba1 linked with the blaOXA-51-type beta-lactamase harboring Acinetobacter baumannii beta clonal group isolate 10 expressing ompA, adeB, adeM, aacA4, blaSHV-5 by Etest method
# Format: functional
row,Compound,MIC [µg/mL]
1,C[C@@H](O)[C@H]1C(=O)N2C(C(=O)O)=C(S[C@@H]3CN[C@H](C(=O)N(C)C)C3)[C@H](C)[C@H]12 [MEROPENEM],> 32

# Test system: Acinetobacter baumannii
# Assay: Antimicrobial activity against ISAba1 linked with the blaOXA-51-type beta-lactamase harboring Acinetobacter baumannii beta clonal group isolate 11 expressing ompA, adeB, adeM, blaSHV-5 by Etest method
# Format: functional
row,Compound,MIC [µg/mL]
1,C[C@@H](O)[C@H]1C(=O)N2C(C(=O)O)=C(S[C@@H]3CN[C@H](C(=O)N(C)C)C3)[C@H](C)[C@H]12 [MEROPENEM],> 32

# Test system: Acinetobacter baumannii
# Assay: Antimicrobial activity against ISAba1 linked with the blaOXA-51-type beta-lactamase harboring Acinetobacter baumannii beta clonal group isolate 12 expressing ompA, adeB, adeM, aacA4, aacC2, blaSHV-5 by Etest method
# Format: functional
row,Compound,MIC [µg/mL]
1,C[C@@H](O)[C@H]1C(=O)N2C(C(=O)O)=C(S[C@@H]3CN[C@H](C(=O)N(C)C)C3)[C@H](C)[C@H]12 [MEROPENEM],> 32

# Test system: Acinetobacter baumannii
# Assay: Antimicrobial activity against ISAba1 linked with the blaOXA-51-type beta-lactamase harboring Acinetobacter baumannii beta clonal group isolate 13 expressing ompA, adeB, adeM, aacA4, blaSHV-5 by Etest method
# Format: functional
row,Compound,MIC [µg/mL]
1,C[C@@H](O)[C@H]1C(=O)N2C(C(=O)O)=C(S[C@@H]3CN[C@H](C(=O)N(C)C)C3)[C@H](C)[C@H]12 [MEROPENEM],> 32

# Test system: Acinetobacter baumannii
# Assay: Antimicrobial activity against ISAba1 linked with the blaOXA-51-type beta-lactamase harboring Acinetobacter baumannii beta clonal group isolate 14 expressing ompA, adeB, adeM, aacA4, blaSHV-5 by Etest method
# Format: functional
row,Compound,MIC [µg/mL]
1,C[C@@H](O)[C@H]1C(=O)N2C(C(=O)O)=C(S[C@@H]3CN[C@H](C(=O)N(C)C)C3)[C@H](C)[C@H]12 [MEROPENEM],> 32

# Test system: Acinetobacter baumannii
# Assay: Antimicrobial activity against ISAba1 linked with the blaOXA-51-type beta-lactamase harboring Acinetobacter baumannii beta clonal group isolate 15 expressing ompA, adeB, adeM, aacA4, blaSHV-5 by Etest method
# Format: functional
row,Compound,MIC [µg/mL]
1,C[C@@H](O)[C@H]1C(=O)N2C(C(=O)O)=C(S[C@@H]3CN[C@H](C(=O)N(C)C)C3)[C@H](C)[C@H]12 [MEROPENEM],> 32

# Test system: Acinetobacter baumannii
# Assay: Antimicrobial activity against ISAba1 linked with the blaOXA-51-type beta-lactamase harboring Acinetobacter baumannii beta clonal group isolate 16 expressing ompA, adeB, adeM, aacA4, blaSHV-5 by Etest method
# Format: functional
row,Compound,MIC [µg/mL]
1,C[C@@H](O)[C@H]1C(=O)N2C(C(=O)O)=C(S[C@@H]3CN[C@H](C(=O)N(C)C)C3)[C@H](C)[C@H]12 [MEROPENEM],> 32

# Test system: Acinetobacter baumannii
# Assay: Antimicrobial activity against ISAba1 linked with the blaOXA-51-type beta-lactamase harboring Acinetobacter baumannii beta clonal group isolate 17 expressing ompA, adeB, adeM, aacA4, blaSHV-5 by Etest method
# Format: functional
row,Compound,MIC [µg/mL]
1,C[C@@H](O)[C@H]1C(=O)N2C(C(=O)O)=C(S[C@@H]3CN[C@H](C(=O)N(C)C)C3)[C@H](C)[C@H]12 [MEROPENEM],> 32

# Test system: Acinetobacter baumannii
# Assay: Antimicrobial activity against ISAba1 linked with the blaOXA-51-type beta-lactamase harboring Acinetobacter baumannii beta clonal group isolate 18 expressing ompA, adeB, adeM, aacA4, blaSHV-5 by Etest method
# Format: functional
row,Compound,MIC [µg/mL]
1,C[C@@H](O)[C@H]1C(=O)N2C(C(=O)O)=C(S[C@@H]3CN[C@H](C(=O)N(C)C)C3)[C@H](C)[C@H]12 [MEROPENEM],> 32

# Test system: Acinetobacter baumannii
# Assay: Antimicrobial activity against ISAba1 linked with the blaOXA-51-type beta-lactamase harboring Acinetobacter baumannii zeta clonal group isolate 19 expressing ampC, ompA, adeB, adeM, aacC2 by Etest method
# Format: functional
row,Compound,MIC [µg/mL]
1,C[C@@H](O)[C@H]1C(=O)N2C(C(=O)O)=C(S[C@@H]3CN[C@H](C(=O)N(C)C)C3)[C@H](C)[C@H]12 [MEROPENEM],> 1.5

# Test system: Acinetobacter baumannii
# Assay: Antimicrobial activity against ISAba1 linked with the blaOXA-51-type beta-lactamase harboring Acinetobacter baumannii zeta clonal group isolate 20 expressing ampC, ompA, adeB, adeM, aacC2 by Etest method
# Format: functional
row,Compound,MIC [µg/mL]
1,C[C@@H](O)[C@H]1C(=O)N2C(C(=O)O)=C(S[C@@H]3CN[C@H](C(=O)N(C)C)C3)[C@H](C)[C@H]12 [MEROPENEM],> 1.5
